According to publication PMC3610872, “Full and Partial Agonists of Thromboxane Prostanoid Receptor Unveil Fine Tuning of Receptor Superactive Conformation and G Protein Activation” (PLoS ONE, 2013):
Where a chain is given by its changes, count along the chain named.

Legend:
[1] = molecular target: T1, E129V mutant human TP receptor (Homo sapiens, UniProt P21731, E129V); test: BRET2 measurement of Gq protein activation, E129V mutant; format: cell-based; conditions: HEK293 cells
T1 construct: expressed in transfected cells; host or cells: HEK293
T1 sequence (P21731 1-343 E129V): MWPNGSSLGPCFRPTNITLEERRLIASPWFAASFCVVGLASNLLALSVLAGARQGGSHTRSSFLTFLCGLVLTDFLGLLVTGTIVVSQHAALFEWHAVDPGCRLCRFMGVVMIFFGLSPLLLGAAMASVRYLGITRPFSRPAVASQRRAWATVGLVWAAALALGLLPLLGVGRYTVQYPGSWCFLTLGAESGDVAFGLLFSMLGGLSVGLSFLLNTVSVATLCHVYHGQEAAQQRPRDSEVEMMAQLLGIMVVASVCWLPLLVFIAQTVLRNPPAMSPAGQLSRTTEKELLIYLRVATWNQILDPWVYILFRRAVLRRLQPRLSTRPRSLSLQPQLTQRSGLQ
Protocol: (§1) All average results are presented as mean±S.E. When indicated, ANOVA followed by post-hoc test for multiple comparisons was performed. Data from radioligand binding were evaluated by a nonlinear, least-squares curve-fitting procedure using GraphPad Prism version 4, implemented with the n-ligand m-binding site model, as described in the LIGAND computer program. Concentration-response curves were evaluated using Prism 4, which use the four parameters logistic model as described in the ALLFIT program. Parameter errors are all expressed in percentage coefficient of variation (%CV) and calculated by simultaneous analysis of at least two different independent experiments performed in duplicate or triplicate. Parameter comparison has been performed on the base of the F test for extra sum of square principle. All curves shown are computer generated.

WT human TP receptor [2] = molecular target: T2, WT human TP receptor (Homo sapiens, UniProt P21731); test: BRET2 measurement of Gq protein activation, WT receptor; format: cell-based; conditions: HEK293 cells, value ±%CV
T2 construct: expressed in transfected cells; host or cells: HEK293
T2 sequence (P21731 1-343): T1 sequence (P21731 1-343 E129V) with V129E
From the text: HEK 293 cells were co-transfected with vectors expressing the GFP^10-Gγ2, Gβ1, Gαq-Rluc8 and WT or E129V mutant of TP receptor to investigate direct G protein activation with an intramolecular bioluminescent resonance energy transfer (BRET^2) strategy. To avoid possible variations in the BRET signaling resulting from fluctuation in the relative expression levels of the energy donor and acceptor, we designed transfection conditions to maintain constant GFP^10 and Rluc8 expression and their ratios in each experimental set. Total fluorescence and luminescence were directly determined in an aliquot of the transfected cells using an Infinite F500 microplate reader (Tecan, Milan, Italy) as previously described. […] 48 hours after transfection, cells were washed once with PBS, detached, and resuspended in PBS+0.1% (w/v) glucose at room temperature. Cells were then distributed (80 µg of proteins per well) into a 96-well microplate (Wallac, Perkin Elmer, Monza, Italy) and incubated in the presence or absence of increasing concentrations of ligands for 2 min before the addition of the luciferase substrate Coelenterazine 400a (5 µM; Biotium, Hayward, CA). BRET signal between Rluc8 and GFP^10 was measured immediately after the addition of the Rluc substrate in the microplate reader. The BRET signal was calculated as the ratio of the light emitted by GFP^10 (510–540 nm) over the light emitted by Rluc8 (370–450 nm). The changes in BRET induced by the ligands were expressed as Òagonist-induced BRETÓ, obtained by subtracting the BRET signal detected in the presence of PBS by the BRET signal detected in the presence of the specific ligand.
as §1
This recorded real time conformational changes between the α and the βγ subunits within the Gq protein, where a decrease of the BRET signal provoked by agonist-induced receptor activation is indicative of a conformational reorganization leading the Gα-Gβγ interface to open, reflects the initial event of Gq protein activation, [23] (Figure 6A).

[3] = molecular target: T1, E129V mutant human TP receptor; test: Total inositol phosphate (IP) accumulation, E129V mutant; format: cell-based; conditions: HEK293 cells
Protocol: (§2) Receptor expression and functional activity were monitored 48 hours after transfection. […] Heterologous competition studies involved concentrations of the indicated unlabeled ligands extending from 0.1 nM to 30 µM. After 30 min incubation at 25 °C, the reaction was stopped by aspiration of the medium, cells were washed with ice-cold PBS containing 0.2% (w/v) BSA and lysed in 0.5 N NaOH. Radioactivity was measured by liquid scintillation counting. Binding data were analyzed as described in Data and Statistical Analysis. Quantification of the total labeled inositol phosphates (IP) accumulation was performed using a conventional gravity flow column chromatography, as described previously, [19]. Briefly, the day before the assay, cells were labeled with 0,5 µCi of [myo-2-^3H]inositol (17 Ci/mmol) for 18–20 hours in serum-free, inositol-free DMEM containing 20 mM HEPES buffer, pH 7.4, and 0.5% (w/v) Albumax I. The day of the assay, media was replaced with serum-free, inositol-free DMEM containing 25 mM LiCl and cells stimulated for 30 min with the indicated agonists. After removal of the medium, cells were lysed with 10 mM formic acid and lysates were applied onto an anion exchange AG 1X-8 column, formate form, 200–400 mesh. The total IP fraction was then eluted with 2 M ammonium formate/formic acid buffer at pH 5 and radioactivity determined by liquid scintillation counting. Rescue experiments were performed essentially as above, except for a 18 hours incubation step with 1 µΜof […] followed by its removal by washing three times with ice-cold PBS containing 1 mM MgCl2 and 0.1 mM CaCl2 before starting the experiment.
as §1

WT human TP receptor [4] = molecular target: T2, WT human TP receptor; test: Total inositol phosphate (IP) accumulation, WT receptor; format: cell-based; conditions: HEK293 cells, 30 min stimulation, value ±%CV
Protocol: as §2, §1

[5] = molecular target: T1, E129V mutant human TP receptor; parameters: method as in PMID 20383734; conditions: E129V vs WT; cited from earlier work
[6] = E129V, 30 min stimulation, value ±%CV

EC50 ([1]; E129V, Gαq-Rluc8/GFP10-Gγ2/Gβ1, 2 min ligand, value ±%CV): 4.53 nM
Activity ratio (EC50 WT over EC50 E129V), BRET ([1]; WT vs E129V): 76
EC50 (WT human TP receptor [2]; Gαq-Rluc8/GFP10-Gγ2/Gβ1, 2 min ligand): 345 ± 14 nM
Emax, agonist-induced BRET (WT human TP receptor [2]): −0.07±3
EC50 [3, 6]: 4.47 nM
Emax, total IP [3, 6]: 18115±5 dpm/wel
Activity ratio (EC50 WT over EC50 E129V), total IP ([3]; WT vs E129V): 22.1
Emax, total IP (WT human TP receptor [4]; no Gαq overexpression): 12374±8 dpm/well
EC50 (WT human TP receptor [4]): 98.7 ± 70 nM
Compound: CCCCC[C@H](O)/C=C/[C@@H]1[C@@H](C/C=C\CCCC(=O)O)[C@H]2CO[C@@H]1C2 (relative stereo) [U46619, [1R-[1α,4α,5β(Z),6α(1E,3S*)]]-7-[6-(3-hydroxy-1-octenyl)-2-oxabicyclo[2.2.1]hept-5-yl]-5-heptenoic acid]
Fold lower EC50 than WT, total IP formation [5]: 10 fold
